Legend:
[1] = biological target: T1, c-Myc protein (Homo sapiens, UniProt P01106); test: Ability of compounds to degrade c-Myc protein in HL60 cells (ELISA); assay type: cell-based; details: HL-60, 1 μM compound, 24 h, read-out: HL60 cells Protein degradation rate (1 μM)
T1 construct: endogenous in cells; host or cells: HL60 cells
Protocol: I Activity test 1: Ability of compounds to degrade c-Myc protein in HL60 cells:
HL60 cells in the exponential growth phase were centrifuged, diluted with fresh culture mediums to 6×10^4 cells/100 μL and plated into a 96-well plate at 100 μL per well.
Preparation of test compounds: the compounds were weighed and diluted with DMSO to a 10 mM stock solution for later use. According to test requirements, drugs were diluted with cell culture mediums, with ten-fold dilutions starting from 10 μM, to achieve 3 concentration gradients: 10 μM, 1 μM and 100 NM; and finally, 1 μL of the drugs (DMSO content: 0.01%) were added to each well. For the blank control group, DMSO was also diluted with cell culture mediums, and finally, 1 μL of the control reagent (DMSO content: 0.01%) was added to each well.
3. Effect of drugs on c-Myc in cells as determined by ELISA
After 24 h of drug action, the culture mediums were removed, and the cells were washed once with ice-cold 1× PBS. PBS was removed, and 100 μL of ice-cold 1× Cell Lysis Buffer plus 1 mM phenylmethylsulfonyl fluoride (PMSF) was added to each well. The plate was incubated on ice for 20 min and centrifuged at 4000 RPM at 4° C. for 10 min for later use.
4. Reagent and antibody preparation in ELISA kit 1× wash buffer • 1). 16 mL of ELISA wash buffer concentrate (25×) was diluted with 384 mL of deionized water or distilled water, labeled as 1× Wash Buffer. • 2). The concentrate and 1× Wash Buffer were stored in the refrigerator. The diluted buffer was used within 14 days.
The cell extraction buffer contains 10 mM Tris (pH 7.4), 100 mM NaCl, 1 mM EDTA, 1 mM EGTA, 1 mM NaF, 20 mM Na4P2O7 2 mM Na3VO4. 1% Triton™ ×-100, 10% glycerol, 0.1% SDS and 0.5% deoxycholate. Immediately before use, PMSF (0.3 M stock solution in DMSO) was added to the buffer to a final concentration of 1 mM.
Standard curve configuration: The standard liquid was diluted using glass or plastic tubes. • 1). Huc-Myc (total) standard liquid (Invitrogen, KH02041) was reconstituted with a standard dilution to 1000 pg/mL. Refer to the standard vial label for instructions. The contents were gently swirled or mixed and then allowed to stand for 10 minutes to ensure complete reconstitution, labeled as 1,000 pg/mL human c-Myc. The standard liquid was used within 1 hour after reconstitution. • 2). 250 μL of standard dilution buffers were added to 7 test tubes respectively labeled 500, 250, 125, 62.5, 31.25, 15,63 and 0 pg/mL. • 3). 250 μL of the 1000 pg/ml standard stock solution was added to the first EP tube to a concentration of 500 pg/mL, vortexed and mixed evenly. 250 μL of the resulting mixture was further pipetted and added to the second EP tube to a concentration of 250 pg/mL. Serial dilutions were performed until the sixth EP tube with a concentration of 15.63 pg/mL. Dilution was not performed on the last EP tube. • 4). The remaining reconstituted standard liquid should be discarded, or aliquoted and frozen at −80° C. for further use. Standards can be frozen and thawed only once without losing immunoreactivity.
1× anti-rabbit IgG HRP solution: 1× anti-rabbit IgG HRP solution was prepared within 15 minutes of use. The anti-rabbit IgG HRP (100×) contained 50% viscous glycerol. To ensure accurate dilutions, the following operations were carried out: 1 For each 8-well test strip used in the test, 10 μl, of the anti-rabbit IgG -IRP (100×) solution was pipetted, wherein the pipette tip was wiped with clean absorbent paper to remove excess solutions, and then the solution was dispensed into a test tube containing 1 mL of HRP diluent and mixed thoroughly. 2. The unused anti-rabbit IgG HRP (100×) was placed in the refrigerator for storage.
50 μL of the standard liquid was added to the appropriate wells and not added to the blank control well. Except for the blank control well, 50 μL of Hu c-Myc (total) detection antibody solution was added to each well and mixed by tapping the side face of the plate. […]

[2] = tested on: HL60 cells; test: Anti-proliferation ability of compounds on HL60 cells (CTG); assay type: cell-based, human; details: Homo sapiens, HL-60, 72 h, 3 days, CellTiter-Glo, read-out: HL60 cells Proliferation inhibitory activity
Protocol: II. Activity test 2: Anti-proliferation ability of compounds on HL60 cells: 1 Cell plating
HL60 cells in the logarithmic growth phase were counted and plated evenly in a 96-well transparent bottom white plate at 20000 cells per well and 100 μL per well.
A certain amount of the compounds was weighed and diluted with DMSO to a 10 mM stock solution. The culture mediums corresponding to the cells were taken, and the drugs were diluted to the concentration required by the test, shaken gently and mixed evenly. 50 μl of the gradient dilution of the diluted compound was added to each well of the plated cells, and 50 μL of 0.1% DMSO was added to the control group. The plate was shaken gently, mixed evenly and incubated in a cell culture incubator for 3 days.
• 3.1 The CellTiter-GLo™ (CTG) reagent was taken in advance from the −20° C. refrigerator and equilibrated to room temperature in the dark (white bottle+brown bottle, 1:1 mixing evenly into the brown bottle, for later use). • 3.2 The 96-well plate was taken out and inspected under a microscope for growth situation. • 3.3 The bottom of the 96-well plate was tagged with white paper, and then the plate was wrapped with tin foil paper, shaken at 37° C. at 300 r for 10 min and mixed evenly. • 3.4 50 ul of CTG detection reagent was added to each well, Luminescence signal was detected using a microplate reader, and the inhibition rate was calculated. IC50 values of the compounds were calculated by XLfit software to evaluate the proliferation inhibitory activity on HL60 cells.

T1 sequence (P01106 whole entry): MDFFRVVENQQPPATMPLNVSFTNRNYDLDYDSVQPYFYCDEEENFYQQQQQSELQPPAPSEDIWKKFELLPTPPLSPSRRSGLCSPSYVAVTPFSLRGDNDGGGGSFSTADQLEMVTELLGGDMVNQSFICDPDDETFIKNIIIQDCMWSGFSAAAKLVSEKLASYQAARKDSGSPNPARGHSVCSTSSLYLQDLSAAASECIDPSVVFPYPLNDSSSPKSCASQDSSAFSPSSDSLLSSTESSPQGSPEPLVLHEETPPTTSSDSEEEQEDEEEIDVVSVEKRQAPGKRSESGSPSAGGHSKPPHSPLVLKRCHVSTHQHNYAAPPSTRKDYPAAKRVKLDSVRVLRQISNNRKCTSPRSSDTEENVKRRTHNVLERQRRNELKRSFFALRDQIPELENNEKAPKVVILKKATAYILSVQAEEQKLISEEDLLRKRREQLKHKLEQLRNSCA

| inhibition at 1 µM [1] | IC50 [2] | SMILES |
| --- | --- | --- |
| 10 to 30% | 10400 ± 235 nM | O=C1CCC(N2C(=O)c3ccc(C(=O)NC[C@H]4CC[C@H](CNC(=O)Nc5cccc6ncccc56)CC4)cc3C2=O)C(=O)N1 (stereo partly shown) [A50] |
| 60 to 90% | 336 ± 30 nM | O=C1CCC(N2C(=O)c3ccc(C(=O)NC[C@H]4CC[C@H](CNC(=O)Nc5nccc6ccccc56)CC4)cc3C2=O)C(=O)N1 (stereo partly shown) [A51] |
| 30 to 60% | 8060 ± 637 nM | O=C1CCC(N2C(=O)c3ccc(C(=O)NC[C@H]4CC[C@H](CNC(=O)Nc5cncc6ccccc56)CC4)cc3C2=O)C(=O)N1 (stereo partly shown) [A52] |
| 60 to 90% | 1450 ± 280 nM | O=C(Cc1ccccc1)NCc1ccc(CNC(=O)c2ccc3c(c2)C(=O)N(C2CCC(=O)NC2=O)C3=O)cc1 (stereo not shown) [A53] |
| 60 to 90% | 2330 ± 518 nM | COc1ccccc1CC(=O)NCc1ccc(CNC(=O)c2ccc3c(c2)C(=O)N(C2CCC(=O)NC2=O)C3=O)cc1 (stereo not shown) [A54] |
| 60 to 90% | 181 ± 32.8 nM | COc1cccc(CC(=O)NCc2ccc(CNC(=O)c3ccc4c(c3)C(=O)N(C3CCC(=O)NC3=O)C4=O)cc2)c1 (stereo not shown) [A55] |
| 60 to 90% | 666 ± 60.2 nM | COc1cccc(CC(=O)NCc2ccc(CNC(=O)c3ccc4c(c3)C(=O)N(C3CCC(=O)NC3=O)C4=O)cc2)c1OC (stereo not shown) [A56] |
| 60 to 90% | 214 ± 4.7 nM | O=C(Cc1ccccc1Cl)NCc1ccc(CNC(=O)c2ccc3c(c2)C(=O)N(C2CCC(=O)NC2=O)C3=O)cc1 (stereo not shown) [A57] |
| 60 to 90% | 285 ± 10.7 nM | O=C(Cc1cccc(Cl)c1)NCc1ccc(CNC(=O)c2ccc3c(c2)C(=O)N(C2CCC(=O)NC2=O)C3=O)cc1 (stereo not shown) [A58] |
| 60 to 90% | 173 ± 61.3 nM | O=C(Cc1ccc(Cl)cc1)NCc1ccc(CNC(=O)c2ccc3c(c2)C(=O)N(C2CCC(=O)NC2=O)C3=O)cc1 (stereo not shown) [A59] |
| 10 to 30% | 48.5 ± 6 nM | O=C(Cc1cccc(Cl)c1Cl)NCc1ccc(CNC(=O)c2ccc3c(c2)C(=O)N(C2CCC(=O)NC2=O)C3=O)cc1 (stereo not shown) [A60] |
| 60 to 90% | 108 ± 6.5 nM | O=C(CCc1cccc(Cl)c1Cl)NCc1ccc(CNC(=O)c2ccc3c(c2)C(=O)N(C2CCC(=O)NC2=O)C3=O)cc1 (stereo not shown) [A61] |
| 60 to 90% | 320 ± 17.6 nM | O=C(CCc1ccccc1Cl)NCc1ccc(CNC(=O)c2ccc3c(c2)C(=O)N(C2CCC(=O)NC2=O)C3=O)cc1 (stereo not shown) [A62] |
| 60 to 90% | 702 ± 33.8 nM | COc1ccccc1CCC(=O)NCc1ccc(CNC(=O)c2ccc3c(c2)C(=O)N(C2CCC(=O)NC2=O)C3=O)cc1 (stereo not shown) [A63] |
| 60 to 90% | 2020 nM | O=C(Cc1cccc(F)c1)NCc1ccc(CNC(=O)c2ccc3c(c2)C(=O)N(C2CCC(=O)NC2=O)C3=O)cc1 (stereo not shown) [A64] |
| 60 to 90% | 473 ± 93.3 nM | O=C(Cc1ccccc1Br)NCc1ccc(CNC(=O)c2ccc3c(c2)C(=O)N(C2CCC(=O)NC2=O)C3=O)cc1 (stereo not shown) [A65] |
| 60 to 90% | 1850 ± 1230 nM | N#Cc1ccccc1CC(=O)NCc1ccc(CNC(=O)c2ccc3c(c2)C(=O)N(C2CCC(=O)NC2=O)C3=O)cc1 (stereo not shown) [A66] |
| 60 to 90% | 1070 ± 617 nM | O=C(Cc1ccccc1C(F)(F)F)NCc1ccc(CNC(=O)c2ccc3c(c2)C(=O)N(C2CCC(=O)NC2=O)C3=O)cc1 (stereo not shown) [A67] |

| inhibition at 1 µM [1] | IC50 [2] | SMILES |
| --- | --- | --- |
| 60 to 90% | 1000 ± 480 nM | Cc1ccccc1CC(=O)NCc1ccc(CNC(=O)c2ccc3c(c2)C(=O)N(C2CCC(=O)NC2=O)C3=O)cc1 (stereo not shown) [A68] |
| 60 to 90% | 710 ± 40.1 nM | CC(C)(C(=O)NCc1ccc(CNC(=O)c2ccc3c(c2)C(=O)N(C2CCC(=O)NC2=O)C3=O)cc1)c1ccccc1 (stereo not shown) [A69] |
| 60 to 90% | 374 ± 51.1 nM | O=C1CCC(N2C(=O)c3ccc(C(=O)NCc4ccc(CNC(=O)C5(c6ccccc6Br)CC5)cc4)cc3C2=O)C(=O)N1 (stereo not shown) [A70] |
| 60 to 90% | 24.3 ± 8.5 nM | CN(Cc1ccc(CNC(=O)c2ccc3c(c2)C(=O)N(C2CCC(=O)NC2=O)C3=O)cc1)C(=O)Cc1cccc2ccccc12 (stereo not shown) [A71] |
| 60 to 90% | 45.6 ± 3 nM | CN(Cc1ccc(CNC(=O)c2ccc3c(c2)C(=O)N(C2CCC(=O)NC2=O)C3=O)cc1)C(=O)Cn1c2ccccc2c2cccnc21 (stereo not shown) [A72] |
| 60 to 90% | 59.3 ± 5.7 nM | O=C1CCC(N2C(=O)c3ccc(C(=O)NCc4ccc(CNCCc5cccc6ccccc56)cc4)cc3C2=O)C(=O)N1 (stereo not shown) [A73] |
| 60 to 90% | 5.5 ± 2.3 nM | O=C1CCC(N2C(=O)c3ccc(C(=O)NCc4ccc(CNCCn5c6ccccc6c6cccnc65)cc4)cc3C2=O)C(=O)N1 (stereo not shown) [A74] |
| 60 to 90% | 2730 ± 614 nM | O=C1CCC(N2C(=O)c3ccc(C(=O)NCc4ccc(COCCc5cccc6ccccc56)cc4)cc3C2=O)C(=O)N1 (stereo not shown) [A75] |
| 60 to 90% | 432 ± 138 nM | O=C1CCC(N2C(=O)c3ccc(C(=O)NCc4ccc(COCCn5c6ccccc6c6cccnc65)cc4)cc3C2=O)C(=O)N1 (stereo not shown) [A76] |
| 60 to 90% | 73.4 nM | CS(=O)(=O)N(CCc1cccc2ccccc12)Cc1ccc(CNC(=O)c2ccc3c(c2)C(=O)N(C2CCC(=O)NC2=O)C3=O)cc1 (stereo not shown) [A77] |
| 60 to 90% | 4.6 nM | CS(=O)(=O)N(CCn1c2ccccc2c2cccnc21)Cc1ccc(CNC(=O)c2ccc3c(c2)C(=O)N(C2CCC(=O)NC2=O)C3=O)cc1 (stereo not shown) [A78] |
| 60 to 90% | 21.7 nM | CC(=O)N(CCc1cccc2ccccc12)Cc1ccc(CNC(=O)c2ccc3c(c2)C(=O)N(C2CCC(=O)NC2=O)C3=O)cc1 (stereo not shown) [A79] |
| 60 to 90% | < 3 nM | CC(C)C(=O)N(CCc1cccc2ccccc12)Cc1ccc(CNC(=O)c2ccc3c(c2)C(=O)N(C2CCC(=O)NC2=O)C3=O)cc1 (stereo not shown) [A80] |
| 60 to 90% | < 3 nM | O=C1CCC(N2C(=O)c3ccc(C(=O)NCc4ccc(CN(CCc5cccc6ccccc56)C(=O)C5CC5)cc4)cc3C2=O)C(=O)N1 (stereo not shown) [A81] |
| 60 to 90% | < 3 nM | CC(=O)N(CCn1c2ccccc2c2cccnc21)Cc1ccc(CNC(=O)c2ccc3c(c2)C(=O)N(C2CCC(=O)NC2=O)C3=O)cc1 (stereo not shown) [A82] |
| 30 to 60% | 27.2 ± 7.6 nM | CN(CCc1cccc2ccccc12)Cc1ccc(CNC(=O)c2ccc3c(c2)C(=O)N(C2CCC(=O)NC2=O)C3=O)cc1 (stereo not shown) [A83] |
| 60 to 90% | 13.1 ± 6.2 nM | CN(CCn1c2ccccc2c2cccnc21)Cc1ccc(CNC(=O)c2ccc3c(c2)C(=O)N(C2CCC(=O)NC2=O)C3=O)cc1 (stereo not shown) [A84] |
